Results from EP4563146A1 (IRBM S.P.A., priority 2023, dated 2025).
Read-outs that look alike come from different tables or passages of the source.

Assays:
[1] = target: T1, West Nile Virus (WNV) NS2B-NS3 protease (West Nile virus, UniProt Q9Q6P4); assay: WNV protease inhibition assay; type: biochemical; conditions: Table 4; letter codes for IC50
T1 construct: NS2B1423-1470); purchased R&D 2907-SE-020
Text: WNV protease inhibition assay

ZIKV replicon = assay: ZIKV replication inhibition assay (NanoLuc replicon in Vero cells); conditions: 72 h
[2] = Zika virus, Vero, read-out: ZIKA Cell_Nanoluc, Vero cells with stable ZIKV replicon, 72 h, Nano-Glo readout
[3] = Zika virus, Vero, read-out: ZIKA Cell_Nanoluc

T1 sequence (Q9Q6P4 1423-1470): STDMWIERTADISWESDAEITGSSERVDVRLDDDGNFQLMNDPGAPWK
T1 sequence (Q9Q6P4 1506-1689): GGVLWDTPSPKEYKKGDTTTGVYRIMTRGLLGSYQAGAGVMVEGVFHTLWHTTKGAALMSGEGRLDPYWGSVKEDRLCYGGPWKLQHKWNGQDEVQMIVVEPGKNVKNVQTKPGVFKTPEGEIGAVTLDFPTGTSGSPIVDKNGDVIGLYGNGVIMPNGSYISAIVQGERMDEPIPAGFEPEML

Structure (SMILES) | IC50 [1] [nM] | EC50 (ZIKV replicon; [2]) [nM] | EC50 (ZIKV replicon; read-out: ZIKA Cell_Nanoluc, Vero cells with stable ZIKV replicon, Nano-Glo readout) [nM] | EC50 (ZIKV replicon; [3]) [nM]
Cc1ccccc1CC(=O)Nc1cc(NC(=O)[N-]c2c[n+]([C@H]3CCC[C@@H](c4cncnc4)C3)no2)cc(C(F)(F)F)c1 [Example 222, (3-((1S,3R)-3-(Pyrimidin-5-yl)cyclohexyl)-1,2,3-oxadiazol-3-ium-5-yl)((3-(2-(o-tolyl)acetamido)-5-(trifluoromethyl)phenyl)-carbamoyl)amide] | < 100 | 100 to 1000 |  | 
Cc1ccccc1CC(=O)Nc1cc(NC(=O)[N-]c2c[n+]([C@H]3CCC[C@@H](CN(C)C)C3)no2)cc(C(F)(F)F)c1 (stereo in doubt) [Example 246, rac-(3-((1S,3R)-3-((Dimethylamino)methyl)-cyclohexyl)-1,2,3-oxadiazol-3-ium-5-yl)((3-(2-(o-tolyl)acetamido)-5-(trifluoromethyl)phenyl)-carbamoyl)amide] | < 100 | 1000 to 20000 |  | 
CN(C)CC1CCC([n+]2cc([N-]C(=O)Nc3cc(NC(=O)Cc4ccccc4C(=O)O)cc(C(F)(F)F)c3)on2)CC1 [Example 159, ((3-(2-(2-Carboxyphenyl)acetamido)-5-(trifluoromethyl)phenyl)carbamoyl)(3-((1R,4R)-4-((dimethylamino)methyl)cyclohexyl)-1,2,3-oxadiazol-3-ium-5-yl)amide] | < 100 |  | 1000 to 20000 | 
CN(C)C[C@H]1CC[C@H]([n+]2cc([N-]C(=O)Nc3cc(NC(=O)Cc4ccccc4Cl)cc(C(F)(F)F)c3)on2)CC1 [Example 168, ((3-(2-(2-Chlorophenyl)acetamido)-5-(trifluoromethyl)phenyl)carbamoyl)(3-((1R,4R)-4-((dimethylamino)methyl)cyclohexyl)-1,2,3-oxadiazol-3-ium-5-yl)amide] | < 100 |  |  | 100 to 1000
Cc1ccccc1CC(=O)Nc1cc(NC(=O)[N-]c2c[n+]([C@H]3CCC[C@H](c4cncnc4)C3)no2)cc(C(F)(F)F)c1 [Example 221, (3-((1S,3S)-3-(Pyrimidin-5-yl)cyclohexyl)-1,2,3-oxadiazol-3-ium-5-yl)((3-(2-(o-tolyl)acetamido)-5-(trifluoromethyl)phenyl)carbamoyl)amide] | 100 to 1000 | 1000 to 20000 |  | 
CN(C)C[C@H]1CC[C@H]([n+]2cc([N-]C(=O)Nc3cc(NC(=O)Cc4c(F)cccc4F)cc(C(F)(F)F)c3)on2)CC1 [Example 199, ((3-(2-(2,6-Difluorophenyl)acetamido)-5-(trifluoromethyl)phenyl)carbamoyl)(3-((1R,4R)-4-((dimethylamino)methyl)cyclohexyl)-1,2,3-oxadiazol-3-ium-5-yl)amide] | 100 to 1000 |  |  | < 100
Cc1ncnc(C)c1-c1ccc(C[n+]2cc([N-]C(=O)N[C@@H]3CC[C@@H](C(F)(F)F)C3)on2)cc1 (racemic) [Example 256, (3-((4-(4,6-Dimethylpyrimidin-5-yl)phenyl)methyl)oxadiazol-3-ium-5-yl)-((rac-(1R,3R)-3-(trifluoromethyl)cyclopentyl)-carbamoyl)azanide] | 100 to 1000 |  |  | 1000 to 20000
Cc1ccccc1CC(=O)Nc1cc(NC(=O)[N-]c2c[n+]([C@@H]3CCC[C@H](C(=O)N(C)C)C3)no2)cc(C(F)(F)F)c1 [Example 234, (3-((1R,3S)-3-(Dimethylcarbamoyl)cyclohexyl)-1,2,3-oxadiazol-3-ium-5-yl)((3-(2-(o-tolyl)-acetamido)-5-(trifluoromethyl)phenyl)-carbamoyl)amide] | 100 to 1000 | 1000 to 20000 |  | 
COc1cc(NC(=O)[N-]c2c[n+](Cc3ccc(-c4c(C)ncnc4C)cc3)no2)ccn1 [Example 209, (3-(4-(4,6-Dimethylpyrimidin-5-yl)benzyl)-1,2,3-oxadiazol-3-ium-5-yl)((2-methoxypyridin-4-yl)carbamoyl)amide] | 100 to 1000 | 1000 to 20000 |  | 
CN(C)[C@H]1CCC[C@@H]([n+]2cc([N-]C(=O)Nc3cc(NC(=O)Cc4ccccc4)cc(C(F)(F)F)c3)on2)C1 [Example 174, (3-((1R,3S)-3-(Dimethylamino)cyclohexyl)-1,2,3-oxadiazol-3-ium-5-yl)((3-(2-phenyl-acetamido)-5-(trifluoromethyl)phenyl)-carbamoyl)amide] | 100 to 1000 | 1000 to 20000 |  | 
Cc1nc(-c2ccc(C[n+]3cc([N-]C(=O)Nc4ccnc(C(F)(F)F)c4)on3)cc2)cs1 [Example 210, (3-(4-(2-Methylthiazol-4-yl)benzyl)-1,2,3-oxadiazol-3-ium-5-yl)((2-(trifluoromethyl)pyridin-4-yl)carbamoyl)amide] | 100 to 1000 | 1000 to 20000 |  | 
O=C([N-]c1c[n+](C[C@H]2CC[C@@H](c3cncnc3)CC2)no1)Nc1ccnc(C(F)(F)F)c1 [Example 182, (3-(((1S,4S)-4-(Pyrimidin-5-yl)cyclohexyl)methyl)-1,2,3-oxadiazol-3-ium-5-yl)((2-(trifluoromethyl)pyridin-4-yl)carbamoyl)amide] | 100 to 1000 |  |  | 1000 to 20000
Cc1ccccc1CC(=O)Nc1cc(NC(=O)[N-]c2c[n+]([C@@H]3CCC[C@H](C(N)=O)C3)no2)cc(C(F)(F)F)c1 [Example 255, (3-((1R,3S)-3-Carbamoylcyclohexyl)-1,2,3-oxadiazol-3-ium-5-yl)((3-(2-(o-tolyl)acetamido)-5-(trifluoromethyl)phenyl)carbamoyl)amide] | 100 to 1000 | 1000 to 20000 |  | 
CNC(=O)[C@H]1CCC[C@@H]([n+]2cc([N-]C(=O)Nc3cc(NC(=O)Cc4ccccc4C)cc(C(F)(F)F)c3)on2)C1 (racemic) [Example 245, rac-(3-((1R,3S)-3-(Methylcarbamoyl)cyclohexyl)-1,2,3-oxadiazol-3-ium-5-yl)((3-(2-(o-tolyl)acetamido)-5-(trifluoromethyl)phenyl)carbamoyl)amide] | 100 to 1000 | 1000 to 20000 |  | 
CN(C)C[C@H]1CC[C@H]([n+]2cc([N-]C(=O)Nc3cc(NC(=O)C(F)(F)CN4CCCC4)cc(C(F)(F)F)c3)on2)CC1 [Example 160, ((3-(2,2-Difluoro-3-(pyrrolidin-1-yl)propanamido)-5-(trifluoromethyl)phenyl)-carbamoyl)(3-((1R,4R)-4-((dimethylamino)-methyl)cyclohexyl)-1,2,3-oxadiazol-3-ium-5-yl)amide] | 1000 to 20000 |  |  | > 20000
Cc1nn(C)c(C)c1-c1ccc(C[n+]2cc([N-]C(=O)Nc3ccnc(C(F)(F)F)c3)on2)cc1 [Example 268, ((2-(Trifluoromethyl)pyridin-4-yl)carbamoyl)(3-(4-(1,3,5-trimethyl-1H-pyrazol-4-yl)benzyl)-1,2,3-oxadiazol-3-ium-5-yl)amide] | < 100 | < 100 |  | 
C[C@@H](C(=O)Nc1cc(NC(=O)[N-]c2c[n+]([C@H]3CC[C@H](CN(C)C)CC3)no2)cc(C(F)(F)F)c1)c1ccccc1 [Example 175, (3-((1R,4R)-4-((Dimethylamino)methyl)-cyclohexyl)-1,2,3-oxadiazol-3-ium-5-yl)((3-((R)-2-phenylpropanamido)-5-(trifluoromethyl)-phenyl)carbamoyl)amide] | < 100 |  |  | 1000 to 20000
Cc1ccccc1CC(=O)Nc1cc(NC(=O)[N-]c2c[n+]([C@H]3CC[C@H](CN(C)C)CC3)no2)cc(C(F)(F)F)c1 [Example 171, (3-((1R,4R)-4-((Dimethylamino)methyl)-cyclohexyl)-1,2,3-oxadiazol-3-ium-5-yl)((3-(2-(o-tolyl)acetamido)-5-(trifluoromethyl)phenyl)-carbamoyl)amide] | < 100 |  |  | 100 to 1000
CNC(=O)c1ccc(NC(=O)[N-]c2c[n+](Cc3ccc(-c4c(C)ncnc4C)cc3)no2)cc1C(F)(F)F [Example 273, (3-(4-(4,6-Dimethylpyrimidin-5-yl)benzyl)-1,2,3-oxadiazol-3-ium-5-yl)((4-(methyl-carbamoyl)-3-(trifluoromethyl)phenyl)carbamoyl)amide] | 100 to 1000 | 1000 to 20000 |  | 
O=C([N-]c1c[n+](C[C@H]2CC[C@@H](c3cncnc3)CC2)no1)Nc1cccc(C(F)(F)F)c1 [Example 179, (3-(((1S,4S)-4-(Pyrimidin-5-yl)cyclohexyl)-methyl)-1,2,3-oxadiazol-3-ium-5-yl)((3-(trifluoromethyl)phenyl)carbamoyl)amide] | 1000 to 20000 |  |  | 1000 to 20000
Cc1ccccc1CC(=O)Nc1cc(NC(=O)[N-]c2c[n+]([C@@H]3CCCC[C@@H]3N(C)C)no2)cc(C(F)(F)F)c1 (racemic) [Example 244, rac-(3-((1R,2S)-2-(Dimethylamino)cyclohexyl)-1,2,3-oxadiazol-3-ium-5-yl)((3-(2-(o-tolyl)acetamido)-5-(trifluoromethyl)phenyl)-carbamoyl)amide] | 100 to 1000 | 1000 to 20000 |  | 
Cc1nc(-c2ccc(C[n+]3cc([N-]C(=O)Nc4ccnc(C(F)(F)F)c4)on3)cc2)c(C)s1 [Example 259, (3-(4-(2,5-Dimethylthiazol-4-yl)benzyl)-1,2,3-oxadiazol-3-ium-5-yl)((2-(trifluoromethyl)pyridin-4-yl)carbamoyl)amide] | 100 to 1000 | < 100 |  | 
CC(=O)Nc1ccc(NC(=O)[N-]c2c[n+](Cc3ccc(-c4c(C)ncnc4C)cc3)no2)cc1C(F)(F)F [Example 264, ((4-Acetamido-3-(trifluoromethyl)phenyl)-carbamoyl)(3-(4-(4,6-dimethylpyrimidin-5-yl)benzyl)-1,2,3-oxadiazol-3-ium-5-yl)amide] | < 100 | < 100 |  | 
Cc1ncccc1-c1ccc(C[n+]2cc([N-]C(=O)Nc3ccnc(C(F)(F)F)c3)on2)cc1 [Example 258, (3-(4-(2-Methylpyridin-3-yl)benzyl)-1,2,3-oxadiazol-3-ium-5-yl)((2-(trifluoromethyl)pyridin-4-yl)carbamoyl)amide] | < 100 | < 100 |  | 
Cc1ncnc(C)c1C1=CCC(C[n+]2cc([N-]C(=O)Nc3ccnc(C(F)(F)F)c3)on2)CC1 (centres unmarked) [Example 216, (3-((4-(4,6-Dimethylpyrimidin-5-yl)cyclohex-3-en-1-yl)methyl)-1,2,3-oxadiazol-3-ium-5-yl)((2-(trifluoromethyl)pyridin-4-yl)carbamoyl)amide] | 100 to 1000 | 1000 to 20000 |  | 
